# According to patent US20060009520A1, “Retinoid-based methods for altering macrophage cholesterol” (priority 2004, published 2006):
# Tests used:
# [1] = test system: ABCA1, ABCG1, SREBP-1c, apoE, LXRα, Cyp26 mRNA; test: Quantitative real-time PCR of LXR target genes and Cyp26 in human monocyte-derived macrophages; type: cell-based; details: human macrophages
# Method: For quantification of mouse Cyp26 mRNA levels, each amplification mixture (25 μ) contained 62.5 ng of cDNA, 100 nM concentrations of reverse and forward primers, and 2.5 μl of 10× SYBR Green PCR master mix (Perkin-Elmer Life Sciences, Boston, Mass.). Quantitative expression values were extrapolated from standard curves for Cyp26 expression with 10-fold dilutions of cDNA (in triplicate). Each sample was normalized to β-actin that was deduced from TaqMan assays, triplicate results were averaged, and relative Cyp26 mRNA levels were determined. The primers mCyp26 F (5′-[…]-3′) and mCyp26 R (5′-[…]-3′) were used. RNA measurements from human monocyte-derived macrophages were performed as described previously (10, 44).
# [2] = Plasma and hepatic lipid analysis; type: in vivo, mouse; details: mice; for Hepatic lipid Cholesterol / Hepatic lipid Triglycerides / Plasma lipid Cholesterol / Plasma lipid Triglycerides: 24 h
# Method: Mice were fasted for 3 h before blood collection. Plasma was separated by centrifugation and kept at −80° C. until lipid analysis. Liver tissue samples (50 to 75 mg) were homogenized in PBS. Lipids were then extracted with chloroform-methanol (2/1 [vol/vol]) and redissolved in isopropanol. Triglyceride and cholesterol were measured in plasma and in the liver lipid extracts by using commercial kits (Wako Chemicals, Neusse Germany).
# FXR = biological target: T1, FXR (Mus musculus, UniProt Q60641); details: cited from earlier work
# T1 sequence (Q60641 1-488): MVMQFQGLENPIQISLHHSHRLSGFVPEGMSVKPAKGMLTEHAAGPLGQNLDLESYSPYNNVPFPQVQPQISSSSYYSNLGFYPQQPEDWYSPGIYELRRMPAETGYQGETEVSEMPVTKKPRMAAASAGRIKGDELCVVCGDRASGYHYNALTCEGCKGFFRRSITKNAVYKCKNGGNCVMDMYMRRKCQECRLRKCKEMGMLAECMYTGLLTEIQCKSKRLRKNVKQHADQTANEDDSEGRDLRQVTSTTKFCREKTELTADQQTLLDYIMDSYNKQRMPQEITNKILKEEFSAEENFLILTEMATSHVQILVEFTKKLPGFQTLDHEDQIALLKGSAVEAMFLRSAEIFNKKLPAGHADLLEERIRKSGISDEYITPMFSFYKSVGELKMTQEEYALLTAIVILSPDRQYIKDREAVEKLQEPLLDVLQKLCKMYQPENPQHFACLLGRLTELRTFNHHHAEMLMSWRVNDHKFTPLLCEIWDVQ
# ABCA1 protein = test: Western blot of ABCA1 protein in mouse peritoneal macrophages; type: cell-based; details: 24 h
# Method: Protein extracts from macrophages were prepared by lysing the cells in modified radioimmunoprecipitation assay buffer (50 mM Tris, 150 mM NaCl, 1 mM EDTA. 1% Triton X-100) containing a protease inhibitor cocktail (Complete EDTA Free; Roche). Protein content in the extracts was determined by using the DC protein assay (Bio-Rad, Hercules, Calif.). Equal amounts of protein (40 to 50 μg) were separated by electrophoresis with 4 to 15% acrylamide gradient gels (Bio-Rad) and then transferred to nitrocellulose membrane (Trans-Blot Transfer Medium; Bio-Rad). Membranes were probed with anti-ABCA1 antibody (Novus Biologicals, Littleton, Colo.) and anti-β-actin antibody (Sigma) according to the manufacturer's recommendations. Immunoblots were developed by using a chemiluminescent detection system (Super Signal West Pico chemiluminescent substrate; Pierce, Rockford, Ill.).
smiles,measurement,setting,value
"C/C(=C\c1ccc(C(=O)O)cc1)c1ccc2c(c1)C(C)(C)CCC2(C)C [TTNPB, 4-[E-2-5,6.7.8-tetrahydro-5,5,8,8-tetramethyl-2-naphthalenyl-l-propenyl]benzoic acid]",Cyp26 mRNA increase,[1],~6 fold
same,"induction of ABCA1 or other LXR target genes, compared with ATRA",[1],much less effective than ATRA
same,Hepatic lipid Cholesterol,[2]; 1 mg/kg intraperitoneally,1.43 ± 0.07 μg/mg of tissue
same,Hepatic lipid Triglycerides,[2]; 1 mg/kg intraperitoneally,11.57 ± 4.05 μg/mg of tissue
same,Plasma lipid Cholesterol,[2]; 1 mg/kg intraperitoneally,64.1 ± 8.0 mg/dL
same,Plasma lipid Triglycerides,[2]; 1 mg/kg intraperitoneally,35.1 ± 4.0 mg/dL
same,Hepatic lipid Cholesterol,[2]; 10 mg/kg intraperitoneally,1.31 ± 0.20 μg/mg of tissue
same,Hepatic lipid Triglycerides,[2]; 10 mg/kg intraperitoneally,9.25 ± 1.98 μg/mg of tissue
same,Plasma lipid Cholesterol,[2]; 10 mg/kg intraperitoneally,58.0 ± 4.9 mg/dL
same,Plasma lipid Triglycerides,[2]; 10 mg/kg intraperitoneally,33.1 ± 3.1 mg/dL
same,effect on hepatic triglyceride content,[2]; intraperitoneal,did not result in an increase
same,effect on triglyceride levels in plasma,"[2]; intraperitoneal, higher doses",significant reduction
same,FXR activation,FXR,activates FXR at relatively high concentrations
same,ABCA1 protein levels,ABCA1 protein,accumulation of ABCA1 protein
